According to EP0548798A1, “Antiviral agent” (SANWA KAGAKU KENKYUSHO CO., LTD., priority 1991, dated 1993):
Converted amounts (≈) assume the structure as drawn. Read-outs that look alike come from different tables or passages of the source.

Assays:
[1] = tested on: herpes simplex virus type 1 (Miyama strain); assay: Antiviral activity against HSV-1 in vitro, inhibition of virus-induced CPE in GMK cells (Test Example 1); format: cell-based, HSV-1 (Miyama strain)
Procedure: (§1) Confluent GMK cells (derived from green monkey kidney) in 96-well plates were infected with HSV-1 (Miyama strain) in the presence of various concentrations of test compounds. […] The virus titer (TCID₅₀) was determined from CPE of virus infected culture. Antivirus effects of test compounds were calculated from TCID₅₀ values of test compound treated and control cultures and represented by ΔTCID₅₀(log₁₀). Test compounds were dissolved in MEM medium, ethanol or DMSO to 10 mg/ml, and diluted with MEM medium supplemented with 1% fetal bovineserum.

GMK cells [2] = assay: Cytotoxicity observed microscopically in GMK cells (Test Example 1); format: cell-based, green monkey
Procedure: as §1
In Table 1, parentheses indicate the cytotoxicity of these compounds. (-) and (±) indicate no cytotoxicity and slight cytotoxicity, respectively.

[3] = tested on: herpes simplex virus type 1 (Miyama strain); assay: Antiviral activity against HSV-1 in vitro, inhibition of virus-induced CPE in GMK cells (Test Example 2); format: cell-based, HSV-1 (Miyama strain); conditions: 0.5% fetal bovine serum
Procedure: (§2) Confluent GMK cells (derived from green monkey kidney) in 96-well plates were infected with HSV-1 (Miyama strain) in the presence of various concentrations of test compounds. After incubation, virus-induced cytopathic effect (CPE), inhibitory effect of CPE by the test compound and cytotoxicity were microscopically observed. The virus titer (TCID₅₀) was determined from CPE of virus infected culture. Ancivirus effects of test compounds were calculated from TCID₅₀ values of test compound treated and control cultures and represented by ΔTCID₅₀(log₁₀). Test compounds were dissolved in MEM medium, ethanol or DMSO to 10 mg/ml, and diluted with MEM medium supplemented with 0.5% fetal bovine serum.

GMK cells [4] = assay: Cytotoxicity observed microscopically in GMK cells (Test Example 2); format: cell-based, green monkey; parameters: key: -: no cytotoxicity; ±: slight cytotoxicity; +: cytotoxicity with observable antiviral effect; conditions: in parentheses
Procedure: as §2
In Table 4, parentheses indicate the cytotoxicity of these compounds. (-), (±) and (+) indicate no cytotoxicity, slight cytotoxicity and cytotoxicity with observable antiviral effect, respectively.

HIV = assay: Inhibition of HIV-induced cytopathogenicity in MT-4 cells; format: cell-based; conditions: Human immunodeficiency virus 1, read-out: Anti-HIV Activity (MIC, µg/ml)
Procedure: MT-4 cells (lymphoma derived from human T cell leukemia) in 96-well plate were infected with […] in the presence of various concentrations of test compounds. After incubation, inhibitory effect of HIV-induced CPE by the test compounds and cytotoxicity were microscopically observed. […]
Further, since the compounds of the present invention have a chemical structure different from the conventional antiviral substances, it is useful for the prevention or treatment of the infectious diseases caused by viruses resistant to the conventional antiviral substances.

MT-4 cells = assay: Minimum cytotoxic concentration in MT-4 cells; format: cell-based, human
Procedure: MT-4 cells (lymphoma derived from human T cell leukemia) in 96-well plate were infected with […] in the presence of various concentrations of test compounds. After incubation, inhibitory effect of HIV-induced CPE by the test compounds and cytotoxicity were microscopically observed. […] TABLE 6 In Table 6, parentheses indicate the minimum cytotoxic concentration of test compounds.

HSV-1 (Miyama strain) = assay: Anti HSV-1 activity in vivo, intraperitoneally infected mice; parameters: species or system Male BALB/c mice; conditions: 322 PFU (10LD₅₀) HSV-1
Procedure: Male BALB/c mice (5 weeks of age) were intraperitoneally infected with 322 PFU (plaque forming unit, 10LD₅₀) of HSV-1 (Miyama strain). Twenty one days later, survival ratio and mean survival days were evaluated. Test compounds were dispersed in 5% arabic gum/physiological saline, and intraperitoneally administered at 10 mg and 20 mg/kg. Treatment began just after virus inoculation and continued for 5 days.

[5] = 10 µg/ml, GMK cells, in parentheses
[6] = Human alphaherpesvirus 1, 10 µg/ml, GMK cells, 1% fetal bovine serum, read-out: Antiviral Activity (ΔTCID₅₀(log₁₀))
[7] = 10 µg/ml, GMK cells, 1% fetal bovine serum
[8] = 10 mg/kg intraperitoneally for 5 days
[9] = 20 mg/kg intraperitoneally for 5 days

Compound: CCN1CCN(c2ccccc2Cl)CC1 [Compound of Example 12, 1-(2-Chlorophenyl)-4-ethylpiperazine]
- log reduction at 10 µg/mL ([1]; Human alphaherpesvirus 1, GMK, read-out: Antiviral Activity (ΔTCID₅₀(log₁₀))): 0.33
- cytotoxicity (GMK cells [2]; [5]): -

Compound: CC(=O)Oc1ccccc1C(=O)N1CCN(c2ccccc2Cl)CC1 [Compound of Example 2, 1-(2-Acetoxybenzoyl)-4-(2-chlorophenyl)piperazine]
- log reduction at 10 µg/mL [1, 6]: 0.5
- cytotoxicity (GMK cells [2]; [5]): -

Compound: CC(=O)N1CCN(c2ccccc2Cl)CC1 [Compound of Example 13, 1-Acetyl-4-(2-chlorophenyl)piperazine]
- log reduction at 10 µg/mL [1, 6]: 0
- cytotoxicity (GMK cells [2]; [5]): -

Compound: O=C(c1ccccc1O)N1CCN(c2ccccc2Cl)CC1 [Compound of Example 3, 1-(2-Chlorophenyl)-4-(2-hydroxybenzoyl)piperazine]
- log reduction at 10 µg/mL [1, 6]: 0.83
- cytotoxicity (GMK cells [2]; [5]): -

Compound: CCn1cc(C(=O)O)c(=O)c2cc(F)c(N3CCN(c4ccccc4C(F)(F)F)CC3)cc21 [Compound of Example 23, 1-Ethyl-6-fluoro-7-[4-(2-trifluoromethylphenyl)-1-piperazinyl]-1,4-dihydro-4-oxoquinoline-3-carboxylic acid]
- Antiviral Activity (ΔTCID₅₀(log₁₀)) ([3]; 5 µg/ml): > 3.17 log₁₀
- Antiviral Activity (ΔTCID₅₀(log₁₀)) ([3]; 10 µg/ml): > 3.17 log₁₀
- cytotoxicity (GMK cells [4]; 5 µg/ml): ±
- cytotoxicity (GMK cells [4]; 10 µg/ml): +

Compound: CC[C@@]12C=C(C(=O)OCCN3CCN(c4ccccc4Cl)CC3)n3c4c(c5ccccc53)CCN(CCC1)[C@H]42 [Compound of Example 28, (3α,16α)-Eburunamenine-14-carboxylic acid 2-[4-(2-chlorophenyl)piperazine-1-yl]ethyl ester]
- MIC (HIV): 4 µg/mL (≈ 7.34 µM)
- Antiviral Activity (ΔTCID₅₀(log₁₀)) ([3]; 5 µg/ml): 2.00 log₁₀
- Antiviral Activity (ΔTCID₅₀(log₁₀)) ([3]; 10 µg/ml): 3.00 log₁₀
- cytotoxicity (GMK cells [4]; 5 µg/ml): -
- cytotoxicity (GMK cells [4]; 10 µg/ml): +
- minimum cytotoxic concentration (MT-4 cells): 63 µg/mL

Compound: C[C@H](CCC(=O)N1CCN(c2ccccc2Cl)CC1)[C@H]1CC[C@H]2[C@@H]3CC[C@@H]4CCCC[C@]4(C)[C@H]3CC[C@]12C [Compound of Example 10, 1-(2-Chlorophenyl)-4-(5β-cholan-24-oyl)piperazine]
- log reduction at 10 µg/mL [1, 6]: 0.17
- cytotoxicity (GMK cells [2]; green monkey, 10 µg/ml): -

Compound: Cc1cc(O)c2c(=O)c(C)c(-c3ccc(OC(=O)CN4CCN(c5ccccc5C(F)(F)F)CC4)cc3)oc2c1 [Compound of Example 24, 2-[4-(4-(2-Trifluoromethylphenyl)-1-piperazinylacetoxy)phenyl]-5-hydroxy-3,7-dimethyl-4H-1-benzopyran-4-one]
- Antiviral Activity (ΔTCID₅₀(log₁₀)) ([3]; 10 µg/ml): 0.33 log₁₀
- cytotoxicity (GMK cells [4]; 10 µg/ml): -

Compound: O=C(CN1CCCC1=O)N1CCN(c2ccccc2Cl)CC1 [Compound of Example 1, 1-(2-Chlorophenyl)-4-(2-pyrrolidon-1-yl)acetylpiperazine]
- log reduction at 10 µg/mL [1, 6]: 0.17
- cytotoxicity (GMK cells [2]; [5]): -

Compound: O=c1[nH]c(N2CCN(c3ccccc3C(F)(F)F)CC2)nc2nc[nH]c12 [Compound of Example 20, 2-[4-(2-Trifluoromethylphenyl)-1-piperazinyl]hypoxanthine]
- Antiviral Activity (ΔTCID₅₀(log₁₀)) ([3]; 5 µg/ml): 1.66 log₁₀
- Antiviral Activity (ΔTCID₅₀(log₁₀)) ([3]; 10 µg/ml): > 2.83 log₁₀
- cytotoxicity (GMK cells [4]; 5 µg/ml): -
- cytotoxicity (GMK cells [4]; 10 µg/ml): ±

Compound: O=C(CC12CCCN1CCC2)N1CCN(c2ccccc2Cl)CC1 [Compound of Example 4, 1-(1-Azabicyclo[3.3.0]octan-5-yl)acetyl-4-(2-chlorophenyl)piperazine]
- Antiviral Activity (ΔTCID₅₀(log₁₀)) [1, 7]: 0.66 log₁₀

Compound: CC1(C)[C@@H](O)CC[C@]2(C)[C@H]3CC=C4[C@@H]5C[C@@](C)(C(=O)N6CCN(c7ccccc7Cl)CC6)CC[C@]5(C)CC[C@@]4(C)[C@]3(C)CC[C@@H]12 [Compound of Example 15, 1-(3β-Hydroxy-18β-olean-12-en-30-oyl)-4-(2-chlorophenyl)piperazine]
- Antiviral Activity (ΔTCID₅₀(log₁₀)) [1, 7]: > 2.00 log₁₀

Compound: CCCCC/C=C\C/C=C\CCCCCCCC(=O)N1CCN(c2ccccc2C(F)(F)F)CC1 [Compound of Example 17, 1-(2-Trifluoromethylphenyl)-4-[(Z,Z)-9,12-octadecadienoyl]piperazine]
- Antiviral Activity (ΔTCID₅₀(log₁₀)) ([3]; 10 µg/ml): 1.56 log₁₀
- cytotoxicity (GMK cells [4]; 10 µg/ml): -

Compound: CC[C@@]12C=C(C(=O)NCCN3CCN(c4ccccc4OC)CC3)n3c4c(c5ccccc53)CCN(CCC1)[C@H]42 [Compound of Example 25, N-[4-(2-Methoxyphenyl)piperazine-1-yl]ethyl-(3α,16α)-eburunamenine-14-caboxamide]
- Antiviral Activity (ΔTCID₅₀(log₁₀)) ([3]; 5 µg/ml): 0.67 log₁₀
- Antiviral Activity (ΔTCID₅₀(log₁₀)) ([3]; 10 µg/ml): 2.27 log₁₀
- cytotoxicity (GMK cells [4]; 5 µg/ml): -
- cytotoxicity (GMK cells [4]; 10 µg/ml): -

Compound: CCn1cc(C(=O)O)c(=O)c2cc(F)c(N3CCN(c4ccccc4Cl)CC3)cc21 [Compound of Example 5, 7-[4-(2-Chlorophenyl)-1-piperazinyl]-1-ethyl-6-fluoro-1,4-dihydro-4-oxoquinoline-3-carboxylic acid]
- log reduction at 5 µg/mL ([1]; Human alphaherpesvirus 1, 5 µg/ml, GMK cells, 1% fetal bovine serum, read-out: Antiviral Activity (ΔTCID₅₀(log₁₀))): > 2.83
- log reduction at 10 µg/mL [1, 6]: > 2.83
- Mean Survival Days (HSV-1 (Miyama strain); [8]): 16.8 ± 1.6 days
- Survival Ratio at 21 days (%) (HSV-1 (Miyama strain); [8]): 40%
- Mean Survival Days (HSV-1 (Miyama strain); [9]): 18.7 ± 1.2 days
- Survival Ratio at 21 days (%) (HSV-1 (Miyama strain); [9]): 70%
- cytotoxicity (GMK cells [2]; 5 µg/ml, GMK cells, in parentheses): -
- cytotoxicity (GMK cells [2]; [5]): ±

Compound: NS(=O)(=O)c1ccc(N2CCN(c3ccccc3Cl)CC2)cc1 [Compound of Example 11, 1-(4-Aminosulfonylphenyl)-4-(2-chlorophenyl)piperazine]
- log reduction at 10 µg/mL [1, 6]: 1.5
- cytotoxicity (GMK cells [2]; [5]): -

Compound: CCCCCCCCCCCCCCCCCC(=O)N1CCN(c2ccccc2Cl)CC1 [Compound of Example 7, 1-(2-Chlorophenyl)-4-octadecanoylpiperazine]
- log reduction at 10 µg/mL [1, 6]: 0.17
- cytotoxicity (GMK cells [2]; [5]): -

Compound: COc1ccc2[nH]c(C(=O)N3CCN(c4ccccc4C(F)(F)F)CC3)cc2c1 [Compound of Example 22, 1-(5-Methoxyindolyl-2-carbonyl)-4-(2-trifluoromethyl)piperazine]
- Antiviral Activity (ΔTCID₅₀(log₁₀)) ([3]; 10 µg/ml): 0.64 log₁₀
- cytotoxicity (GMK cells [4]; 10 µg/ml): -

Compound: CC[C@@]12C=C(C(=O)NCCN3CCN(c4ccccc4Cl)CC3)n3c4c(c5ccccc53)CCN(CCC1)[C@H]42 [Compound of Example 26, N-[4-(2-Chlorophenyl)piperazine-1-yl]ethyl-(3α,16α)-eburunamenine-14-caboxamide]
- Antiviral Activity (ΔTCID₅₀(log₁₀)) ([3]; 5 µg/ml): 2.00 log₁₀
- Antiviral Activity (ΔTCID₅₀(log₁₀)) ([3]; 10 µg/ml): > 3.17 log₁₀
- cytotoxicity (GMK cells [4]; 5 µg/ml): -
- cytotoxicity (GMK cells [4]; 10 µg/ml): +

Compound: 2-[4-(2-Trifluoromethylphenyl)-1-piperazinyl]-7-(2-deoxy-α-and β-D-ribofuranosyl)hypoxanthine and 2-[4-(2-Trifluromethylphenyl)-1-piperazinyl]-9-(2-deoxy-α- and β-D-ribofuranosyl)hypoxanthine [Compound of Example 21]
- Antiviral Activity (ΔTCID₅₀(log₁₀)) ([3]; 10 µg/ml): 1.00 log₁₀
- cytotoxicity (GMK cells [4]; 10 µg/ml): -

Compound: CC1(C)[C@@H](O)CC[C@]2(C)[C@H]3CC=C4[C@@H]5C[C@@](C)(C(=O)N6CCN(c7ccccc7C(F)(F)F)CC6)CC[C@]5(C)CC[C@@]4(C)[C@]3(C)CC[C@@H]12 [Compound of Example 18, 4-(2-Trifluoromethylphenyl)-1-(3β-hydroxy-18β-olean-12-en-30-oyl)piperazine]
- Antiviral Activity (ΔTCID₅₀(log₁₀)) ([3]; 10 µg/ml): 1.67 log₁₀
- cytotoxicity (GMK cells [4]; 10 µg/ml): -

Compound: CS(=O)(=O)N1CCN(c2ccccc2Cl)CC1 [Compound of Example 6, 1-(2-Chlorophenyl)-4-methylsulfonylpiperazine]
- log reduction at 10 µg/mL [1, 6]: 0.17
- cytotoxicity (GMK cells [2]; [5]): -
